Ends that are not written are not given here.
Key:
[1] = test system: ECFCs; assay: Biotinylated peptide binding to endothelial and other cells by flow cytometry; type: cell-based, human; details: biotinylated peptide 10 μM, 30 min at 4° C.
Experimental: (§1) The synthetic biotinylated binding peptide SEQ ID NO: 4 was further examined for its ability to bind endothelial cells compared to other cell types (see FIG. 16). […] ECFCs are clonally expanded cells isolated from human umbilical cord blood, and are considered highly proliferative endothelial progenitor cells (EPCs) based on their clonogenic and proliferative potential. In another experiment, binding peptide SEQ ID NO: 4 was assayed for its ability to selectively isolate endothelial cells versus smooth muscle cells in the presence of whole blood. HUVECs or UASMCs were incubated in the presence of medium containing 20% whole blood and binding peptide SEQ ID NO: 4-conjugated magnetic beads (via biotin-SA) for 30 min. The solutions containing the bead-peptide-cell complexes were then passed through a […] LS column in a magnetic field. The column was washed, and the remaining peptide-bound cells were then released from the magnetic field and counted.

[2] = test system: peripheral blood cells; assay: as above; type: cell-based, human; details: biotinylated peptide 10 μM, 30 min at 4° C.
Experimental: as §1

[3] = test system: HUVECs; assay: as above; type: cell-based, human; details: biotinylated peptide 10 μM, 30 min at 4° C.
Experimental: as §1

[4] = test system: MSCs; assay: Adipocyte differentiation of peptide-captured MSCs (Oil Red O); type: cell-based, human; details: 21 days in adipocyte differentiation medium
Experimental: Adipocyte differentiation. After capture of MSCs using cell binding peptide SEQ ID NO: 4 with the […] magnetic system according to Example 6, the ability of the captured cells to differentiate into an adipocyte lineage was examined. The MSCs present in the […] column eluants (see Example 6) were cultured for 21 days in complete medium (DMEM, 10% FBS, 100 units/mL penicillin, 100 μg/mL streptomycin, and 2 mM glutamine) supplemented with 0.5 mM isobutyl methylxanthine, 1 μM dexamethasone, 10 μM insulin, 200 μM indomethacin, and 1% antibiotic/antimycotic. Following the 21 day incubation, the cells were fixed in 4% paraformaldehyde in PBS for 15 minutes, washed in 60% isopropanol for 5 minutes, and stained with Oil Red 0 (SIGMA) for 10 minutes to determine the extent of adipogenesis (see FIG. 26, panels A (undifferentiated MSCs) and panel B (adipocyte differentiated MSCs)). The image of the adipose differentiated cells (FIG. 26, panel B) contains a larger magnification inset where the lipid vacuoles are clearly visible.

[5] = test system: human ASCs; assay: Biotinylated peptide cell binding specificity by flow cytometry (Neutravidin-PE); type: cell-based; details: 25 μM peptide solution, 30 min at 4° C.
Text: (§2) The synthetic biotinylated cell binding peptide SEQ ID NO: 4 was examined for its ability to specifically bind MSCs compared to a number of other cells types including adipose-derived mesenchymal stem cells (ASCs), dermal fibroblasts, rodent MSCs, red blood cells, monocytes, lymphocytes and granulocytes. The cell binding peptide was biotinylated as described herein at Example 2. Cultured cells of each type were either purchased (ASCs and dermal fibroblasts) or isolated from rodent bone marrow (rodent MSCs) or human blood. Cells were first harvested and resuspended at 10^6/mL in PBS+2% fetal bovine serum (FBS). An aliquot of cells (50 μL) was incubated in 50 μL of peptide solution (25 μM in PBS+FBS) for 30 min at 4° C. Cells were then washed twice in PBS+FBS with 300×g centrifugation for 5 min between washes. Fluorescently-tagged neutravidin (Neutravidin-PE from INVITROGEN) was then added to the cells to label biotinylated peptide bound to cells. Neutravidin-PE was diluted 1:250 from stock and applied at 50 μL to cells. Cells were then washed in PBS+FBS, and acquired on a BD […]. Peptide reactivity was then measured as percent positivity relative to Neutravidin-PE staining without the addition of biotinylated peptide.

[6] = test system: human MSCs; assay: as above; type: cell-based; details: 25 μM peptide solution, 30 min at 4° C.
Text: as §2

[7] = test system: UASMCs; assay: Biotinylated peptide binding to endothelial and other cells by flow cytometry; type: cell-based; details: biotinylated peptide 10 μM, 30 min at 4° C.
Experimental: as §1

[8] = test system: MSCs; assay: Osteoblast differentiation of peptide-captured MSCs (Alizarin Red S); type: cell-based, human; details: 14 days in osteoblast differentiation medium
Experimental: Osteoblast differentiation. For osteogenic differentiation, the MSCs present in the […] column eluants (see Example 6) were cultured for 14 days in complete medium supplemented with 0.1 μM dexamethasone, 50 μM ascorbate-2-phosphate, 10 mM β-glycerophosphate, and 1% antibiotic/antimycotic. Calcium mineralization was measured by Alizarin Red S (SIGMA) staining to reveal mineralizing osteoblasts (see FIG. 26, panel C (undifferentiated MSCs) and panel D (osteoblast differentiated MSCs)).

[9] = test system: HUVECs; assay: Endothelial cell phenotype and anti-thrombogenic protein expression on peptide-modified collagen; type: cell-based, human; details: HUVECs cultured 24 hours; t-PA and 6-keto Prostaglandin F1a ELISA, flow cytometry
Experimental: Once immobilized on a vascular graft, endothelial cells must retain their characteristic properties of promoting endothelialization. Therefore, the phenotype, viability, and anti-thrombogenic protein expression profiles were evaluated for endothelial cells in the presence of collagen modified with the endothelial cell binding peptide SEQ ID NO: 4 (generated according to Example 7 using BS^3 reagent). […] Specifically, HUVECs were plated on SEQ ID NO: 4 peptide-modified collagen, collagen with 10 μM free SEQ ID NO: 4 peptide or collagen alone for 24 hours. Flow cytometry was performed using a BD […], and ELISAs were performed according to manufacturers instructions. (FIGS. 22A & 22B). Tissue-type Plasminogen Activator (t-PA) and 6-keto Prostaglandin F1a protein expression levels secreted in this assay are aligned with other reports on cultured HUVECS (Kimura and Yokoi-Hayashi, Biochim Biophys Acta, 1996, 1310:1-4; Merhi-Soussi et al., J Leukoc Biol, 2000, 68:881-9).

What does the source list for “SSFWDVCQGDGTCYGGGSR (SSFWDVCQGDGTCYGGGSRGSSG-{K(biotin)}; cysteine pairing not given here) [SEQ ID NO: 4, tested biotinylated with GSSGK(biotin) or other spacer at the C-terminus]”?
cross-reactivity with ECFCs [1]: strongly; cross-reactivity with peripheral blood cells [2]: no cross-reactivity; cross-reactivity with HUVECs [3]: strongly; adipocyte differentiation of captured MSCs [4]: adipogenesis pathway remains intact; binding to human ASCs (percent positivity relative to Neutravidin-PE staining) [5]: high binding; binding to human MSCs (percent positivity relative to Neutravidin-PE staining) [6]: high binding; cross-reactivity with UASMCs [7]: weakly; osteoblast differentiation of captured MSCs [8]: osteogenic pathway remains intact; endothelial cell phenotype and anti-thrombogenic protein secretion [9]: maintained their endothelial cell phenotype and their ability to secrete anti-thrombogenic proteins

Source: patent publication US20110117168A1, “METHODS AND COMPOSITIONS FOR SOFT TISSUE REPAIR” (AFFINERGY, INC., priority 2009, published 2011)
